In ChEMBL document CHEMBL1150537, “Synthesis of echiguanine analogs and their ribofuranosyl glycosides that inhibit phosphatidylinositol 4-kinase” (Bioorg Med Chem Lett, 1997):
Values after ≈ are worked out from the molar mass of the structure shown.

What follows are compounds tested against T1, Phosphatidylinositol 4-kinase, PI4K (Homo sapiens, UniProt Q9BTU6+Q8TCG2+Q9UBF8+P42356) (assay: Inhibition of Phosphatidylinositol 4-kinase of human epidermoid carcinoma A431 cells). Conditions: a-431.
Type: cell-based
With `N#CCCNC(=O)c1cn(C2O[C@H](CO)C(O)[C@H]2O)c2nc(N)nc(O)c12` (single isomer, unassigned) the IC50 was > 100 µg/mL.
In the case of `NCCCNC(=O)c1c[nH]c2nc(N)nc(O)c12` [ECHIGUANINE B], the IC50 was 0.18 µg/mL (≈ 0.719 µM).
For `N=C(N)NCCCNC(=O)c1cn(C2O[C@H](CO)C(O)[C@H]2O)c2nc(N)nc(O)c12` (single isomer, unassigned), the IC50 was 7.5 µg/mL (≈ 17.7 µM).
Work on `COC(=O)CCNC(=O)c1cn(C2O[C@H](CO)C(O)[C@H]2O)c2nc(N)nc(O)c12` (single isomer, unassigned) yielded an IC50 of 25 µg/mL (≈ 60.8 µM).
Compound `N=C(N)CCNC(=O)c1cn(C2O[C@H](CO)C(O)[C@H]2O)c2nc(N)nc(O)c12` (single isomer, unassigned) has an IC50 of 100 µg/mL (≈ 253 µM).
Compound `N#CCCNC(=O)c1c[nH]c2nc(N)nc(O)c12` has an IC50 of 0.45 µg/mL (≈ 1.83 µM).
For `NC(=O)CCNC(=O)c1cn(C2O[C@H](CO)C(O)[C@H]2O)c2nc(N)nc(O)c12` (single isomer, unassigned), the IC50 was 2.4 µg/mL (≈ 6.06 µM).
In the case of `N=C(S)CCNC(=O)c1cn(C2O[C@H](CO)C(O)[C@H]2O)c2nc(N)nc(O)c12` (single isomer, unassigned), the IC50 was > 100 µg/mL.
For `NC(=O)CCNC(=O)c1c[nH]c2nc(N)nc(O)c12`, the IC50 was 0.02 µg/mL (≈ 0.0757 µM).
`N=C(N)NCCCNC(=O)c1c[nH]c2nc(N)nc(O)c12` showed an IC50 of 0.15 µg/mL (≈ 0.513 µM).
`NC(=O)NCCCNC(=O)c1cn(C2O[C@H](CO)C(O)[C@H]2O)c2nc(N)nc(O)c12` (single isomer, unassigned) showed an IC50 of 1 µg/mL (≈ 2.35 µM).
`COC(=O)CCNC(=O)c1c[nH]c2nc(N)nc(O)c12` was tested, and the IC50 was 0.3 µg/mL (≈ 1.07 µM).
With `NCCCNC(=O)c1cn(C2O[C@H](CO)C(O)[C@H]2O)c2nc(N)nc(O)c12` (single isomer, unassigned) the IC50 was > 100 µg/mL.

What follows are compounds tested against T1, Phosphatidylinositol 4-kinase, PI4K (assay: Inhibition of Phosphatidylinositol 4-kinase of human epidermoid carcinoma A431 cells (Not prepared)). Conditions: a-431.
Type: cell-based
In the case of `NC(=O)NCCCNC(=O)c1c[nH]c2nc(N)nc(O)c12`, the IC50 was “Not prepared”.
For `N=C(S)CCNC(=O)c1c[nH]c2nc(N)nc(O)c12`, the IC50 was “Not prepared”.
